Reference: patent EP0726261A1, “Herbidical 1,2,4 thiadiazoles” (American Cyanamid Company, priority 1995, dated 1996)

How the values were obtained:
Assay type in all cases: in vivo
Triticum aestivum [1] = test: Preemergence herbicidal activity (Example 67); set-up: herbicide rating, TRZAW: scale not given here; conditions: pre, 800 g/ha; for herbicide rating, TRZAW: rated about 1-3 weeks after treatment
In short: (§1)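 Test compound was dissolved in acetone containing 0.5% alkylphenol/ethylene oxide condensate, diluted with water and sprayed onto the soil surface of cups at 800g/ha in 400 L/ha (3 bar nozzle). Cups were kept under standard greenhouse conditions and rated about 1-3 weeks after treatment.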

Helianthus annuus [2] = test: Postemergence herbicidal activity (Example 67); conditions: pos, 800 g/ha; for herbicide rating, HELAN: rated after 10-21 days
In short: (§2)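 Seedlings 3-6 weeks old, grown in peat/volcanic clay/bark/polyamide substrate mixed 1:3 with loamy sand, were sprayed postemergence at 800g/ha in 400 L/ha. Compound dissolved in acetone with 0.5% TRITON X-155, diluted in water. Plants kept in greenhouse and rated visually after 10-21 days.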

Amaranthus retroflexus [3] = test: Postemergence herbicidal activity (Example 67); conditions: pos, 800 g/ha; for herbicide rating, AMARE: rated after 10-21 days
In short: as §2

Veronica persica [4] = test: Postemergence herbicidal activity (Example 67); conditions: pos, 800 g/ha; for herbicide rating, VERPE: rated after 10-21 days
In short: as §2

Galium aparine [5] = test: Postemergence herbicidal activity (Example 67); conditions: pos, 800 g/ha; for herbicide rating, GALAP: rated after 10-21 days
In short: as §2

Abutilon theophrasti [6] = test: Postemergence herbicidal activity (Example 67); conditions: pos, 800 g/ha; for herbicide rating, ABUTH: rated after 10-21 days
In short: as §2

Hordeum vulgare [7] = test: Postemergence herbicidal activity (Example 67); conditions: pos, 800 g/ha; for herbicide rating, HORVW: rated after 10-21 days
In short: as §2

Alopecurus myosuroides [8] = test: Postemergence herbicidal activity (Example 67); conditions: pos, 800 g/ha; for herbicide rating, ALOMY: rated after 10-21 days
In short: as §2

Chenopodium album [9] = test: Postemergence herbicidal activity (Example 67); conditions: pos, 800 g/ha; for herbicide rating, CHEAL: rated after 10-21 days
In short: as §2

Zea mays [10] = test: Postemergence herbicidal activity (Example 67); conditions: pos, 800 g/ha; for herbicide rating, ZEAMX: rated after 10-21 days
In short: as §2

Setaria viridis [11] = test: Postemergence herbicidal activity (Example 67); conditions: pos, 800 g/ha; for herbicide rating, SETVI: rated after 10-21 days
In short: as §2

Ipomoea hederacea [12] = test: Postemergence herbicidal activity (Example 67); conditions: pos, 800 g/ha; for herbicide rating, IPOHE: rated after 10-21 days
In short: as §2

Triticum aestivum [13] = test: Postemergence herbicidal activity (Example 67); conditions: pos, 800 g/ha; for herbicide rating, TRZAW: rated after 10-21 days
In short: as §2

Helianthus annuus [14] = test: Preemergence herbicidal activity (Example 67); conditions: pre, 800 g/ha; for herbicide rating, HELAN: rated about 1-3 weeks after treatment
In short: as §1

Amaranthus retroflexus [15] = test: Preemergence herbicidal activity (Example 67); conditions: pre, 800 g/ha; for herbicide rating, AMARE: rated about 1-3 weeks after treatment
In short: as §1

Veronica persica [16] = test: Preemergence herbicidal activity (Example 67); conditions: pre, 800 g/ha; for herbicide rating, VERPE: rated about 1-3 weeks after treatment
In short: as §1

Galium aparine [17] = test: Preemergence herbicidal activity (Example 67); conditions: pre, 800 g/ha; for herbicide rating, GALAP: rated about 1-3 weeks after treatment
In short: as §1

Abutilon theophrasti [18] = test: Preemergence herbicidal activity (Example 67); conditions: pre, 800 g/ha; for herbicide rating, ABUTH: rated about 1-3 weeks after treatment
In short: as §1

Chenopodium album [19] = test: Preemergence herbicidal activity (Example 67); conditions: pre, 800 g/ha; for herbicide rating, CHEAL: rated about 1-3 weeks after treatment
In short: as §1

Zea mays [20] = test: Preemergence herbicidal activity (Example 67); conditions: pre, 800 g/ha; for herbicide rating, ZEAMX: rated about 1-3 weeks after treatment
In short: as §1

Ipomoea hederacea [21] = test: Preemergence herbicidal activity (Example 67); conditions: pre, 800 g/ha; for herbicide rating, IPOHE: rated about 1-3 weeks after treatment
In short: as §1

Hordeum vulgare [22] = test: Preemergence herbicidal activity (Example 67); set-up: herbicide rating, HORVW: scale not given here; conditions: pre, 800 g/ha; for herbicide rating, HORVW: rated about 1-3 weeks after treatment
In short: as §1

Setaria viridis [23] = test: Preemergence herbicidal activity (Example 67); set-up: herbicide rating, SETVI: scale not given here; conditions: pre, 800 g/ha; for herbicide rating, SETVI: rated about 1-3 weeks after treatment
In short: as §1

Alopecurus myosuroides [24] = test: Preemergence herbicidal activity (Example 67); set-up: herbicide rating, ALOMY: scale not given here; conditions: pre, 800 g/ha; for herbicide rating, ALOMY: rated about 1-3 weeks after treatment
In short: as §1

SMILES: O=C(Nc1ccc(F)cc1F)c1nsc(-c2cccc(C(F)(F)F)c2)n1 [Example 62]
- TRZ AW rating (Triticum aestivum [1]): 0
- HEL AN rating (Helianthus annuus [2]): 0
- AMA RE rating (Amaranthus retroflexus [3]): 0
- VER PE rating (Veronica persica [4]): 0
- GAL AP rating (Galium aparine [5]): 0
- ABU TH rating (Abutilon theophrasti [6]): 0
- HOR VW rating (Hordeum vulgare [7]): 0
- ALO MY rating (Alopecurus myosuroides [8]): 0
- CHE AL rating (Chenopodium album [9]): 1 (1-5%)
- ZEA MX rating (Zea mays [10]): 1 (1-5%)
- SET VI rating (Setaria viridis [11]): 5 (45-64%)
- IPO HE rating (Ipomoea hederacea [12]): 1 (1-5%)
- TRZ AW rating (Triticum aestivum [13]): 1 (1-5%)
- HEL AN rating (Helianthus annuus [14]): 0
- AMA RE rating (Amaranthus retroflexus [15]): 0
- VER PE rating (Veronica persica [16]): 0
- GAL AP rating (Galium aparine [17]): 0
- ABU TH rating (Abutilon theophrasti [18]): 1 (1-5%)
- CHE AL rating (Chenopodium album [19]): 0
- ZEA MX rating (Zea mays [20]): 0
- IPO HE rating (Ipomoea hederacea [21]): 3 (16-29%)
- HOR VW rating (Hordeum vulgare [22]): 0
- SET VI rating (Setaria viridis [23]): 0
- ALO MY rating (Alopecurus myosuroides [24]): 3 (16-29%)

SMILES: CC(NC(=O)c1nsc(-c2cccc(C(F)(F)F)c2)n1)c1cccs1 (racemic) [Example 3, (R/S)-5-(3-Trifluoromethylphenyl)-[1,2,4]thiadiazole-3-carboxylic acid, [1-(2-thienyl)ethyl]amide]
- herbicide rating, TRZAW (Triticum aestivum [1]): 0
- herbicide rating, HELAN (Helianthus annuus [2]): 4 (30-44%)
- herbicide rating, AMARE (Amaranthus retroflexus [3]): 2 (6-15%)
- herbicide rating, VERPE (Veronica persica [4]): 0
- herbicide rating, GALAP (Galium aparine [5]): 2 (6-15%)
- herbicide rating, ABUTH (Abutilon theophrasti [6]): 1 (1-5%)
- herbicide rating, HORVW (Hordeum vulgare [7]): 2 (6-15%)
- herbicide rating, ALOMY (Alopecurus myosuroides [8]): 3 (16-29%)
- herbicide rating, CHEAL (Chenopodium album [9]): 4 (30-44%)
- herbicide rating, ZEAMX (Zea mays [10]): 1 (1-5%)
- herbicide rating, SETVI (Setaria viridis [11]): 8 (91-99%)
- herbicide rating, IPOHE (Ipomoea hederacea [12]): 3 (16-29%)
- herbicide rating, TRZAW (Triticum aestivum [13]): 2 (6-15%)
- herbicide rating, HELAN (Helianthus annuus [14]): 0
- herbicide rating, AMARE (Amaranthus retroflexus [15]): 0
- herbicide rating, VERPE (Veronica persica [16]): 0
- herbicide rating, GALAP (Galium aparine [17]): 0
- herbicide rating, ABUTH (Abutilon theophrasti [18]): 0
- herbicide rating, CHEAL (Chenopodium album [19]): 3 (16-29%)
- herbicide rating, ZEAMX (Zea mays [20]): 0
- herbicide rating, IPOHE (Ipomoea hederacea [21]): 0
- herbicide rating, HORVW (Hordeum vulgare [22]): 0
- herbicide rating, SETVI (Setaria viridis [23]): 0
- herbicide rating, ALOMY (Alopecurus myosuroides [24]): 0

SMILES: C[C@H](NC(=O)c1nc(-c2cccc(Cl)n2)ns1)c1ccccc1 [Example 46, (S)-3-(6-Chloro-2-pyridyl)-[1,2,4]thiadiazole-5-carboxylic acid, 1-(phenylethyl)amide]
- TRZ AW rating (Triticum aestivum [1]): 1 (1-5%)
- HEL AN rating (Helianthus annuus [2]): 8 (91-99%)
- AMA RE rating (Amaranthus retroflexus [3]): 3 (16-29%)
- VER PE rating (Veronica persica [4]): 8 (91-99%)
- GAL AP rating (Galium aparine [5]): 5 (45-64%)
- ABU TH rating (Abutilon theophrasti [6]): 8 (91-99%)
- HOR VW rating (Hordeum vulgare [7]): 6 (65-79%)
- ALO MY rating (Alopecurus myosuroides [8]): 6 (65-79%)
- CHE AL rating (Chenopodium album [9]): 6 (65-79%)
- ZEA MX rating (Zea mays [10]): 5 (45-64%)
- SET VI rating (Setaria viridis [11]): 8 (91-99%)
- IPO HE rating (Ipomoea hederacea [12]): 8 (91-99%)
- TRZ AW rating (Triticum aestivum [13]): 5 (45-64%)
- HEL AN rating (Helianthus annuus [14]): 0
- AMA RE rating (Amaranthus retroflexus [15]): 5 (45-64%)
- VER PE rating (Veronica persica [16]): 5 (45-64%)
- GAL AP rating (Galium aparine [17]): 0
- ABU TH rating (Abutilon theophrasti [18]): 0
- CHE AL rating (Chenopodium album [19]): 4 (30-44%)
- ZEA MX rating (Zea mays [20]): 0
- IPO HE rating (Ipomoea hederacea [21]): 0
- HOR VW rating (Hordeum vulgare [22]): 0
- SET VI rating (Setaria viridis [23]): 0
- ALO MY rating (Alopecurus myosuroides [24]): 0

SMILES: CC(NC(=O)c1nc(-c2ccccc2F)ns1)c1cccs1 (racemic) [Example 38]
- herbicide rating, TRZAW (Triticum aestivum [1]): 0
- herbicide rating, HELAN (Helianthus annuus [2]): 7 (80-90%)
- herbicide rating, AMARE (Amaranthus retroflexus [3]): 3 (16-29%)
- herbicide rating, VERPE (Veronica persica [4]): 1 (1-5%)
- herbicide rating, GALAP (Galium aparine [5]): 5 (45-64%)
- herbicide rating, ABUTH (Abutilon theophrasti [6]): 8 (91-99%)
- herbicide rating, HORVW (Hordeum vulgare [7]): 3 (16-29%)
- herbicide rating, ALOMY (Alopecurus myosuroides [8]): 4 (30-44%)
- herbicide rating, CHEAL (Chenopodium album [9]): 6 (65-79%)
- herbicide rating, ZEAMX (Zea mays [10]): 3 (16-29%)
- herbicide rating, SETVI (Setaria viridis [11]): 8 (91-99%)
- herbicide rating, IPOHE (Ipomoea hederacea [12]): 5 (45-64%)
- herbicide rating, TRZAW (Triticum aestivum [13]): 3 (16-29%)
- herbicide rating, HELAN (Helianthus annuus [14]): 0
- herbicide rating, AMARE (Amaranthus retroflexus [15]): 4 (30-44%)
- herbicide rating, VERPE (Veronica persica [16]): 2 (6-15%)
- herbicide rating, GALAP (Galium aparine [17]): 0
- herbicide rating, ABUTH (Abutilon theophrasti [18]): 0
- herbicide rating, CHEAL (Chenopodium album [19]): 5 (45-64%)
- herbicide rating, ZEAMX (Zea mays [20]): 0
- herbicide rating, IPOHE (Ipomoea hederacea [21]): 0
- herbicide rating, HORVW (Hordeum vulgare [22]): 0
- herbicide rating, SETVI (Setaria viridis [23]): 0
- herbicide rating, ALOMY (Alopecurus myosuroides [24]): 0
